From US20110281950A1, “COMPOSITIONS AND METHODS FOR REDUCING PROLIFERATION AND VIABILITY OF LYMPHOBLASTOID CELLS” (priority 2010, published 2011)
Like-named read-outs stand apart in the source and are kept apart here.

Experiments:
Assay type in all cases: cell-based
Purified NK cells [1] = test: NK cell IFNγ and GzB ELISPOT (Example 5); conditions: for NK cell GzB, ELISPOT: untreated control 91 spots; for NK cell IFNγ, ELISPOT: untreated control 314 spots
Method: Purified NK cells were initially treated overnight (NK) with 100 nM, 250 nM or 500 nM AR-42. The NK cells were further stimulated using inflammatory cytokines cytokines IL-2 (50 pM) and IL-12 (10 ng/ml) in an ELISPOT assay to determine IFNγ and GzB secretion potentials. Results were quantified by an ELISPOT analyzer.

[2] = tested on: Activated EBV-specific T cells; test: T cell ELISPOT with and without AR-42 washout (Example 6); conditions: long-term exposure, 500 nM
Method: Activated EBV-specific T cells expanded in the presence of AR-42 were further incubated in media with and without AR-42. After 5 days, the T cells were stimulated with EBV+ LCLs in an ELISPOT assay to determine IFNγ and GzB secretion potentials.

[3] = tested on: EBV-specific CD8+ T-cells; test: EBV-specific T-cell expansion, RAK tetramer (Example 2A); conditions: 100, 250, 500 nM, two weeks co-culture with irradiated LCLs
Method: The effect of AR-42 on EBV-specific T-cell expansion was determined. Irradiated LCLs were added to purified PBMCs and maintained in co-culture for two weeks with AR-42 (100 nM, 250 nM, 500 nM). After two weeks, the EBV-specific T-cell expansion was measured using the RAK tetramer. This tetramer contains the […] peptide which binds the HLA-B8 MHC type I epitope, and can be used to identify EBV-specific (BZLF1 specific) CD8+ T-cells.

[4] = tested on: NK cell-driven antibody dependent cellular cytotoxicity (ADCC) against target B cells; test: NK cell-driven ADCC, four hour 51Cr release assay (Example 3)
Method: (§1) The effects of AR-42 on EBV-specific cytotoxic T cell (CTL) cytotoxicity were assessed in vitro. Peripheral blood mononuclear cells (PBMC) and autologous EBV+ LCL were co-culturing in media containing IL-2 (50 μM) and either DSMO (control) or AR-42 (100 nM). EBV-specific CTLs were identified with anti-CD8 mAb and HLAB8-RAK tetramer, upon a 12 day expansion, the results of which are shown in FIG. 10. […] At day 13, the EBV-specific CTLs were incubated overnight in 100, 250, & 500 nM AR-42+IL-2 (50 μM). The next day, a four hour ^51Cr release assay was performed on each incubated sample in order to access the effects of AR-42 on EBV-specific cytotoxic T cell (CTL) cytotoxicity. This is shown schematically in FIG. 2, which illustrates autologous target EBV+ LCLs are labeled with ^51Cr, which is actively internalized by each cell via pumps in its membrane; effector CTLs are counted and plated at desired effector-target ratios; labeled targets are incubated with effectors for four hours; and lysed targets release intracellular ^51Cr into the supernatant, which is harvested and analyzed for radioactivity using a gamma counter. Effector-target ratios of 50:1, 25:1, and 12.5:1 were used.
The effects of AR-42 on NK cell-driven antibody dependent cellular cytotoxicity (ADCC) were assessed in vitro. NK cells were treated overnight with AR-42 (100 nM, 250 nM, 500 nM) or Rituximab (anti-CD20) or Herceptin (anti-erbB2). Rituximab (anti-CD20) was the antibody of choice for the assay because of its wide clinical use and proven efficacy against B cell lymphomas that express CD20 antigen. Herceptin (anti-erbB2), a commonly used breast cancer drug, was used as a negative control. The effect of AR-42 on NK cell-driven antibody dependent cellular cytotoxicity (ADCC) was assessed using a four hour ^51Cr release assay. The four hour ^51Cr release assay was performed as described with respect to Example 2A, except that effector-target ratios of 25:1, 12.5:1, & 6.25:1 were used.

[5] = tested on: peripheral blood mononuclear cells (PBMCs); test: PBMC viability, PI staining and flow cytometry (Example 9); conditions: 100, 250, 500, 1000 nM, 2 and 4 days
Method: The effect of AR-42 on the viability of peripheral blood mononuclear cells (PBMCs) was determined. PBMCs were isolated from three random donor leukopaks and incubated with AR-42 (100 nM, 250 nM, 500 nM, 1000 nM) for 2 and 4 days. Viability was assessed by PI staining using flow cytometry. All results were normalized relative to untreated DMSO controls. […] The standard deviations in FIG. 15 represent the mean of the three leukopaks.

[6] = tested on: EBV-specific cytotoxic T cell (CTL) cytotoxicity against autologous EBV+ LCLs; test: EBV-specific CTL cytotoxicity, four hour 51Cr release assay (Example 2)
Method: as §1

LCLs (C7M3, DC9) = test: Viability and proliferation of lymphoblastoid cell lines (Example 1A); conditions: 100, 250, 500, 750 and 1000 nM
Method: The effects of AR-42 on the viability and proliferation of lymphoblastoid cell lines was determined. […] Cell viability was analyzed by annexin/PI staining and flow cytometry. Cell counts were measured at day 5. The results are seen in FIGS. 14A and 14B. In FIGS. 14A and 14B, the standard deviation represents the results from triplicate experiments.

[7] = tested on: Activated EBV-specific T cells; test: T cell IFNγ and GzB ELISPOT (Example 4); conditions: 4 days; for T cell IFNγ secretion, ELISPOT: untreated control 98 spots; for T cell GzB secretion, ELISPOT: untreated control 107 spots
Method: The production of proteins associated with the T cell cytotoxic response (interferon-γ, granzyme B) was determined in vitro. Activated EBV-specific T cells were initially treated for 4 days (T) with 100 nM or 500 nM AR-42 and further stimulated with EBV+ LCLs (effector-target ratio: 1:1) in an ELISPOT assay to determine IFNγ and GzB secretion potentials. Release of interferon-gamma (IFNγ) or granzyme B (GzB) was visualized using monoclonal IFNγ/GzB antibodies with BCIP/NBT substrate solution. Results were quantified by an enzyme-linked immunosorbent spot assay (ELISPOT) analyzer.

[8] = tested on: EBV+ transformed B lymphoblastoid cell lines (EBV+ LCL); test: Viability of EBV+ LCL cultured with HDAC inhibitors, annexin/PI staining and flow cytometry (Example 1)
Method: Cell viability was then analyzed every 24 hours by annexin/PI staining and flow cytometry.

Purified NK cells [9] = test: NK cell IFNγ ELISPOT, continuous treatment or washout (Example 7); conditions: control 569 spots
Text: (§2) Purified NK cells in DMSO were used as a control. The cells were subsequently analyzed in an IFNγ ELISPOT assay or a ^51Cr release cytotoxicity assay.

purified CD56+ NK cells = test: Cell surface protein expression on NK cells, flow cytometry (Example 8); conditions: 24 hours; for expression of activating NK cell receptor NKG2D: AR-42 100, 500 nM, SAHA 100, 1000 nM
Text: The mechanism by which HDAC inhibition affects NK cell-driven ADCC was investigated in vitro. […] Viable cells were then collected and stained with monoclonal antibodies specific for cell surface proteins with known stimulatory (NKG2D, FcγRIII) or inhibitory (KIR) activity. Protein expression was then quantified via flow cytometry.

Purified NK cells [10] = test: NK cell 51Cr release cytotoxicity assay, continuous treatment or washout (Example 7); conditions: control 64%
Text: as §2

EBV+ LCLs = test: Cell surface protein expression on EBV+ LCLs, flow cytometry (Example 8)

`CC(C)C(C(=O)Nc1ccc(C(=O)NO)cc1)c1ccccc1` (stereo not drawn) [AR-42, N-hydroxy-4-(3-methyl-2-phenyl-butyrylamino)-benzamide] was tested, and the “NK cell GzB, ELISPOT” value (Purified NK cells [1]; 100 nM overnight) was 22 spots, the “NK cell IFNγ, ELISPOT” value (Purified NK cells [1]; 100 nM overnight) was 63 spots and the “NK cell GzB, ELISPOT” value (Purified NK cells [1]; 250 nM overnight) was 7 spots. For the same compound, the “NK cell IFNγ, ELISPOT” value (Purified NK cells [1]; 250 nM overnight) was 10 spots, the “NK cell GzB, ELISPOT” value (Purified NK cells [1]; 500 nM overnight) was 10 spots and the “NK cell IFNγ, ELISPOT” value (Purified NK cells [1]; 500 nM overnight) was 1 spots. For the same compound, the “cytotoxic function of activated T cells” value [2] was “eventual loss of cytotoxic function”, the “EBV-specific T-cell expansion” value [3] was “decreases EBV-specific T-cell expansion in a dose dependent manner” and the “NK cytotoxicity (ADCC) in combination with rituximab” value (“NK cytotoxicity (ADCC)” for short) ([4]; 100 nM overnight, highest effector-target ratio (25:1)) was 36%. For the same compound, the “NK cytotoxicity (ADCC)” value ([4]; 250 nM overnight, highest effector-target ratio (25:1)) was 23%, the “NK cytotoxicity (ADCC)” value ([4]; 500 nM overnight) was 1.1% and the “viability of PBMCs” value [5] was “decreases the viability of PBMCs in a dose dependent manner”. For the same compound, the CTL cytotoxicity ([6]; 100 nM overnight, highest effector-target ratio (50:1)) was 19%, the CTL cytotoxicity ([6]; 250 nM overnight, highest effector-target ratio (50:1)) was 12% and the CTL cytotoxicity ([6]; 500 nM overnight) was −2%. For the same compound, the “antiproliferative activity in EBV+ LCL cell lines” value (LCLs (C7M3, DC9)) was “antiproliferative activity in EBV+ LCL cell lines in a dose dependent manner”, the “T cell IFNγ secretion, ELISPOT” value ([7]; 100 nM) was 47 spots and the “T cell GzB secretion, ELISPOT” value ([7]; 100 nM) was 99 spots. The “T cell IFNγ secretion, ELISPOT” value ([7]; 500 nM) was 3 spots, the “T cell GzB secretion, ELISPOT” value ([7]; 500 nM) was 5 spots and the “concentration that inhibits EBV+ LCL growth” value [8] was at least 250 nM. For the same compound, the “viability at day 4 compared with day 2” value ([8]; 750 and 1000 nM) was “higher viability by day 4”, the viability at 0.25 µM ([8]; Lymphoblastoid cell, 48 h, 250 nM, day 2, read-out: viability of B cell population) was 87% and the viability at 0.5 µM ([8]; Lymphoblastoid cell, 48 h, 500 nM, day 2, read-out: viability of B cell population) was 75%. For the same compound, the viability at 0.75 µM ([8]; Lymphoblastoid cell, 48 h, 750 nM, day 2, read-out: viability of B cell population) was 62%, the viability at 1 µM ([8]; Lymphoblastoid cell, 48 h, 1000 nM, day 2, read-out: viability of B cell population) was 54% and the “NK cell IFNγ secretion, ELISPOT” value (Purified NK cells [9]; AR-42 100 nM treated) was 207 spots. For the same compound, the “NK cell IFNγ secretion, ELISPOT” value (Purified NK cells [9]; AR-42 100 nM, 24 hour treatment+24 hour washout) was 418 spots, the “NK cell IFNγ secretion, ELISPOT” value (Purified NK cells [9]; AR-42 250 nM treated) was 10 spots and the “NK cell IFNγ secretion, ELISPOT” value (Purified NK cells [9]; AR-42 250 nM, 24 hour treatment+24 hour washout) was 235 spots. For the same compound, the “NK cell IFNγ secretion, ELISPOT” value (Purified NK cells [9]; AR-42 500 nM treated) was 6 spots, the “NK cell IFNγ secretion, ELISPOT” value (Purified NK cells [9]; AR-42 500 nM, 24 hour treatment+24 hour washout) was 96 spots and the “expression of inhibitory receptor KIR on NK cells” value (purified CD56+ NK cells; especially at 500 nM) was “down modulates”. The “expression of activating NK cell receptor NKG2D” value (purified CD56+ NK cells) was “down modulate”, the NK cytotoxic activity (Purified NK cells [10]; 100 nM treated, max E:T ratio) was 36% and the NK cytotoxic activity (Purified NK cells [10]; 100 nM, washout) was 41%. For the same compound, the NK cytotoxic activity (Purified NK cells [10]; 250 nM treated, max E:T ratio) was 23%, the NK cytotoxic activity (Purified NK cells [10]; 250 nM, washout) was 36% and the NK cytotoxic activity (Purified NK cells [10]; 500 nM treated, max E:T ratio) was 1%. The NK cytotoxic activity (Purified NK cells [10]; 500 nM, washout) was 42%, the “Mic A/B (NKG2D ligand) expression on EBV+ LCLs” value (EBV+ LCLs; 500 nM and 1000 nM, 24 and 48 hours) was “unaffected” and the “MHC Class I expression (KIR ligand) on EBV+ LCLs” value (EBV+ LCLs; higher concentrations (500 nM and 1000 nM, 24 and 48 hours)) was “down modulates”.

`O=C(CCCCCCC(=O)Nc1ccccc1)NO` [SAHA, suberoylanilide hydroxamic acid, reference compound] was tested, and the B cell death ([8]; 250-2000 nM, 4 day incubation) was “little cell death”, the viability at 4 µM ([8]; Lymphoblastoid cell, 96 h, 4000 nM, day 4, read-out: viability of B cell population) was 69% and the “NK cell IFNγ secretion, ELISPOT” value (Purified NK cells [9]; SAHA 100 nM treated) was 452 spots. For the same compound, the “NK cell IFNγ secretion, ELISPOT” value (Purified NK cells [9]; SAHA 500 nM treated) was 366 spots, the “NK cell IFNγ secretion, ELISPOT” value (Purified NK cells [9]; SAHA 1000 nM treated) was 166 spots and the “expression of activating NK cell receptor NKG2D” value (purified CD56+ NK cells) was “down modulate”.

`CCCC(CCC)C(=O)O` [valproate, reference compound] showed a viability at 2000 µM ([8]; Lymphoblastoid cell, 72 h, 2.0 mM, day 3, read-out: viability of B cell population) of 83%, a viability at 3000 µM ([8]; Lymphoblastoid cell, 72 h, 3 mM, day 3, read-out: viability of B cell population) of 73% and a viability at 4000 µM ([8]; Lymphoblastoid cell, 72 h, 4.0 mM, day 3, read-out: viability of B cell population) of 63%. The viability at 4000 µM ([8]; Lymphoblastoid cell, 96 h, 4 mM, day 4, read-out: viability of B cell population) was 71%, the “NK cell IFNγ secretion, ELISPOT” value (Purified NK cells [9]; valproate 1 mM) was 446 spots and the “NK cell IFNγ secretion, ELISPOT” value (Purified NK cells [9]; valproate 2 mM) was 238 spots.

In the case of “rituximab: anti-CD20 antibody used for the ADCC assay”, the “relative ADCC” value ([4]; NK cells not treated with AR-42, effector-target ratio 6.25:1) is reported as 52%, the “relative ADCC” value ([4]; NK cells not treated with AR-42, effector-target ratio 12.5:1) is reported as 56% and the “relative ADCC” value ([4]; NK cells not treated with AR-42, effector-target ratio 25:1) is reported as 64%.
